Source: patent US4605674A, “Substituted acetophenones and compositions containing them” (Hoffmann-La Roche Inc., priority 1979, dated 1986)
Converted amounts (≈) assume the structure as drawn. Read-outs that look alike come from different tables or passages of the source.

Assays:
rhinovirus HGP = experiment: Inhibition of viral cytopathogenic effect (c.p.e.) of rhinovirus HGP in HeLa cells; format: cell-based, human rhinoviruses; conditions: Enterovirus, 48 h, read-out: IC50 against rhinovirus HGP (concentration inhibiting the viral c.p.e. by 50%)
Protocol: A suspension of HeLa cells (6×10^4) was mixed with rhinovirus HGP (3×10^3 plaque forming units, PFU) and was plated in a microtest plate containing the compounds to be tested serially diluted. The cells were then cultured with Eagle's minimum essential medium containing 2% calf serum, 1% tryptose phosphate broth, 100 μg/ml of streptomycin sulfate and 20 unit/ml of penicillin G. Viral c.p.e. (cytopathogenic effect) was observed by a microscope after 2 days culture at 33° C.
The antiviral activity of the tested compounds is expressed by the concentration inhibiting the viral c.p.e. by 50% when compared to the control culture (IC50).

in vivo = conditions: mouse, DDY mice, single dose
Protocol: ^(1) DDY mice weighing 15-20 g were treated with a single dose of the
compound. Survivors were recorded on day 21.
^(2) Compounds were dissolved in dimethylsulfoxide.
^(3) Compounds were suspended with solution of 0.5% carboxymethyl

[1] = ip, i.p., dissolved in dimethylsulfoxide, day 21, read-out: LD50 i.p.
[2] = po, p.o., suspended in 0.5% carboxymethyl cellulose, day 21, read-out: LD50 p.o.
[3] = HeLa cells, 2 days culture at 33° C.

| IC50 (rhinovirus HGP; [3]) [µg/mL] | Structure (SMILES) | IC50 (rhinovirus HGP; HeLa) [µg/mL] | LD50 at 504 h (in vivo; [1]) [mg/kg] | LD50 at 504 h (in vivo; [2]) [mg/kg] |
| --- | --- | --- | --- | --- |
| – | COc1cc(O)c(C(=O)/C=C/c2ccc(O)cc2)c(OC)c1 [2',4-dihydroxy-4',6'-dimethoxychalcone] | 0.3 to 1 (≈ 0.999 to 3.33 µM) | > 500 | > 3200 |
| – | COc1ccc(/C=C/C(=O)c2c(OC)cc(OC)cc2OC(=O)CCCC(=O)O)cc1 [2'-(4-carboxybutanoyloxy)-4,4',6'-trimethoxychalcone] | 0.03 (≈ 0.07 µM) | > 500 | > 2000 |
| – | COc1ccc(/C=C/C(=O)c2c(OC)cc(OC)cc2OC(=O)[C@H](C)N)cc1 [2'-(L-alanyloxy)-4,4',6'-trimethoxychalcone] | 0.03 to 0.1 (≈ 0.0778 to 0.259 µM) | > 180 | > 1000 |
| – | CCOC(=O)Oc1cc(OC)cc(OC)c1C(=O)/C=C/c1ccc(OC)cc1 [2'-(ethoxycarbonyloxy)-4,4',6'-trimethoxychalcone] | 0.04 (≈ 0.104 µM) | > 500 | > 4000 |
| – | CCOc1cc(OC)cc(OC(=O)CC)c1C(=O)/C=C/c1ccc(OC)cc1 [2'-ethoxy-4,4'-dimethoxy-6'-(propionyloxy)-chalcone] | 0.02 to 0.06 (≈ 0.052 to 0.156 µM) | > 1000 | > 5000 |
| – | CCOc1cc(OC)cc(O)c1C(=O)C=Cc1ccc(C)o1 [2'-ethoxy-6'-hydroxy-4'-methoxy-3-(5-methyl-2-furyl)-acrylophenone] | 0.04 (≈ 0.132 µM) | > 500 | > 1000 |
| – | CCOc1cc(OC)cc(O)c1C(=O)/C=C/c1ccc(OC)cc1 [2'-ethoxy-6'-hydroxy-4,4'-dimethoxychalcone] | 0.01 (≈ 0.0305 µM) | > 500 | > 1000 |
| – | COc1cc(O)c(C(=O)/C=C/c2cccc(OC)c2OC)c(OC)c1 [2'-hydroxy-2,3,4',6'-tetramethoxychalcone] | 0.1 (≈ 0.29 µM) | > 500 | > 1000 |
| – | COc1ccc(/C=C/C(=O)c2c(O)cc(OC)cc2OC)c(OC)c1 [2'-hydroxy-2,4,4',6'-tetramethoxychalcone] | 0.1 (≈ 0.29 µM) | > 500 | > 1000 |
| – | COc1cc(/C=C/C(=O)c2c(O)cc(OC)cc2OC)cc(OC)c1 [2'-hydroxy-3,4',5,6'-tetramethoxychalcone] | 0.3 (≈ 0.871 µM) | > 500 | > 5000 |
| – | COc1cccc(/C=C/C(=O)c2c(O)cc(OC)cc2OC)c1 [2'-hydroxy-3,4',6'-trimethoxychalcone] | 0.1 (≈ 0.318 µM) | > 500 | > 1000 |
| – | COc1cc(O)c(C(=O)/C=C/c2ccc(OC)c(OC)c2)c(OC)c1 [2'-hydroxy-3,4,4',6'-tetramethoxychalcone] | 0.1 to 0.3 (≈ 0.29 to 0.871 µM) | > 500 | > 500 |
| – | COc1cc(O)c(C(=O)C=Cc2ccc3c(c2)OCO3)c(OC)c1 [2'-hydroxy-4',6'-dimethoxy-3,4-(methylenedioxy)-chalcone] | 0.02 (≈ 0.0609 µM) | > 1000 | > 5000 |
| – | COc1cc(O)c(C(=O)C=Cc2cccn2C)c(OC)c1 [2'-hydroxy-4',6'-dimethoxy-3-(1-methyl-pyrrol-2-yl)-acrylophenone] | 0.1 (≈ 0.348 µM) | > 500 | > 1000 |
| – | COc1cc(O)c(C(=O)C=Cc2sccc2C)c(OC)c1 [2'-hydroxy-4',6'-dimethoxy-3-(3-methyl-2-thienyl)-acrylophenone] | 0.1 (≈ 0.329 µM) | > 500 | > 1500 |
| 0.6 (≈ 2.1 µM) | COc1cc(O)c(C(=O)C=Cc2cccnc2)c(OC)c1 [2'-hydroxy-4',6'-dimethoxy-3-(3-pyridyl)-acrylophenone] | – | – | – |
| – | COc1cc(O)c(C(=O)C=Cc2ccc(C)o2)c(OC)c1 [2'-hydroxy-4',6'-dimethoxy-3-(5-methyl-2-furyl)-acrylophenone] | 0.03 (≈ 0.104 µM) | > 500 | > 2000 |
| – | COc1cc(O)c(C(=O)/C=C/c2ccc(SC)cc2)c(OC)c1 [2'-hydroxy-4',6'-dimethoxy-4-(methylthio)-chalcone] | 0.03 (≈ 0.0908 µM) | > 1000 | > 5000 |
| – | CCCOc1ccc(/C=C/C(=O)c2c(O)cc(OC)cc2OC)cc1 [2'-hydroxy-4',6'-dimethoxy-4-propoxychalcone] | 0.1 (≈ 0.292 µM) | > 500 | > 5000 |
| – | COc1cc(O)c(C(=O)/C=C/c2ccccc2)c(OC)c1 [2'-hydroxy-4',6'-dimethoxychalcone] | 0.1 to 0.3 (≈ 0.352 to 1.06 µM) | > 1000 | > 5000 |
| 0.6 to 2 (≈ 1.69 to 5.63 µM) | CCN(CC)c1ccc(/C=C/C(=O)c2c(O)cc(OC)cc2OC)cc1 [4-(diethylamino)-2'-hydroxy-4',6'-dimethoxychalcone] | – | – | – |
| 0.03 to 0.1 (≈ 0.1 to 0.334 µM) | COc1cc(O)c(C(=O)/C=C/c2ccc(N)cc2)c(OC)c1 [4-amino-2'-hydroxy-4',6'-dimethoxychalcone] | – | – | – |
